Like-named read-outs stand apart in the source and are kept apart here.
System: HSP47
Conditions: for % of Expression at Dose (nM) 18 nM / % of HSP47 expression in Stellate Cell, Conc siRNA 18 nM: siRNA 18 nM; for % of Expression at Dose (nM) 18 nM / % of Expression at Dose (nM) 75 nM / % of Expression at Dose (nM) 300 nM: rat stellate cells; for % of Expression at Dose (nM) 75 nM / % of HSP47 expression in Stellate Cell, Conc siRNA 75 nM: siRNA 75 nM; for % of Expression at Dose (nM) 300 nM / % of HSP47 expression in Stellate Cell, Conc siRNA 300 nM: siRNA 300 nM; for % of HSP47 expression in Stellate Cell, Conc siRNA 18 nM / % of HSP47 expression in Stellate Cell, Conc siRNA 75 nM / % of HSP47 expression in Stellate Cell, Conc siRNA 300 nM: Table 5, stellate cells
Method: The in vitro activity for gene expression knockdown using an siRNA was measured using rat stellate cells in DMEM medium according to the following protocol: One day before the transfection, plate the cells in a 96-well plate at 3×10^3 cells per well for Stellate cells with 100 μl of medium containing 10% FBS and culture in a 37° C. incubator containing a humidified atmosphere of 5% CO2 in air. Before transfection, change medium to 90 μl of medium without antibiotics. Prepare the appropriate dilutions of the solution collected from the tubing in PBS buffer so that the addition of 10 μl into each well is sufficient to reach the desired concentration. 48 hours after transfection, wash the cells once with ice-cold PBS. Lyse the cells with 50 μl of Cell-to-Ct Lysis Buffer for 5-30 minutes at ambient temperature. Add 5 μl of Stop Solution and incubate for 2 minutes at ambient temperature. Measure mRNA level by qPCR with TAQMAN immediately. Alternatively, the samples can be frozen at −80° C. and assayed at later times. For qRT-PCR assay: Thaw all reagents on ice. Mix the pooled reagents in 0.2 ml PCR tubes. Dispense the set-up mixture into 384 well plate, 10 μl/well×3. Seal the plate with film, spin down mixture into the bottom of wells. Perform qRT-PCR assay.
In this example, an HSP47 siRNA was used to knockdown HSP47 gene. For TaqMan gene expression assays, HSP47 gene specific TaqMan probe was used.

SMILES	% of Expression at Dose (nM) 18 nM (Table 3)	% of Expression at Dose (nM) 75 nM (Table 3)	% of Expression at Dose (nM) 300 nM (Table 3)	% of Expression at Dose (nM) 18 nM (Table 4)	% of Expression at Dose (nM) 75 nM (Table 4)	% of Expression at Dose (nM) 300 nM (Table 4)	% of HSP47 expression in Stellate Cell, Conc siRNA 18 nM	% of HSP47 expression in Stellate Cell, Conc siRNA 75 nM	% of HSP47 expression in Stellate Cell, Conc siRNA 300 nM
CCCCC/C=C\C/C=C\CCCCCCCC(=O)OCCN(CCOC(=O)CCCCCCC/C=C\C/C=C\CCCCC)C(=O)CCC(=O)NCCCCC(NC(=O)CCC(=O)N(CCOC(=O)CCCCCCC/C=C\C/C=C\CCCCC)CCOC(=O)CCCCCCC/C=C\C/C=C\CCCCC)C(=O)NCCCOCCOCCOCCCNC(=O)C(CCCCNC(=O)CCC(=O)N(CCOC(=O)CCCCCCC/C=C\C/C=C\CCCCC)CCOC(=O)CCCCCCC/C=C\C/C=C\CCCCC)NC(=O)CCC(=O)N(CCOC(=O)CCCCCCC/C=C\C/C=C\CCCCC)CCOC(=O)CCCCCCC/C=C\C/C=C\CCCCC (stereo not drawn) [Compound T4]	82%	70%	44%	27%	10%	8%	–	–	–
CCCCCCCCCCCCCC(=O)OCCN(CCOC(=O)CCCCCCCCCCCCC)C(=O)CCC(=O)NCCCC[C@H](NC(=O)CCC(=O)N(CCOC(=O)CCCCCCCCCCCCC)CCOC(=O)CCCCCCCCCCCCC)C(=O)NCCCOCCOCCOCCCNC(=O)CCOCCOCCOCCOCCOCCC(=O)NCCCOCCOCCOCCCNC(=O)[C@H](CCCCNC(=O)CCC(=O)N(CCOC(=O)CCCCCCCCCCCCC)CCOC(=O)CCCCCCCCCCCCC)NC(=O)CCC(=O)N(CCOC(=O)CCCCCCCCCCCCC)CCOC(=O)CCCCCCCCCCCCC [Compound T1]	76%	68%	44%	–	–	–	–	–	–
CCCCCCCCCCCCCC(=O)OCCN(CCOC(=O)CCCCCCCCCCCCC)C(=O)CCC(=O)NCCCC[C@H](NC(=O)CCC(=O)N(CCOC(=O)CCCCCCCCCCCCC)CCOC(=O)CCCCCCCCCCCCC)C(=O)NCCCOCCOCCOCCOCCOCCCNC(=O)[C@H](CCCCNC(=O)CCC(=O)N(CCOC(=O)CCCCCCCCCCCCC)CCOC(=O)CCCCCCCCCCCCC)NC(=O)CCC(=O)N(CCOC(=O)CCCCCCCCCCCCC)CCOC(=O)CCCCCCCCCCCCC [Compound T2]	82%	70%	44%	–	–	–	–	–	–
CCCCCCCC/C=C\CCCCCCCC(=O)OCCN(CCOC(=O)CCCCCCC/C=C\CCCCCCCC)C(=O)CCC(=O)NCCCC[C@H](NC(=O)CCC(=O)N(CCOC(=O)CCCCCCC/C=C\CCCCCCCC)CCOC(=O)CCCCCCC/C=C\CCCCCCCC)C(=O)NCCCOCCOCCOCCCNC(=O)CCOCCOCCOCCOCCOCCC(=O)NCCCOCCOCCOCCCNC(=O)[C@H](CCCCNC(=O)CCC(=O)N(CCOC(=O)CCCCCCC/C=C\CCCCCCCC)CCOC(=O)CCCCCCC/C=C\CCCCCCCC)NC(=O)CCC(=O)N(CCOC(=O)CCCCCCC/C=C\CCCCCCCC)CCOC(=O)CCCCCCC/C=C\CCCCCCCC [Compound S8]	74%	64%	42%	–	–	–	–	–	–
CCCCC/C=C\C/C=C\CCCCCCCC(=O)OCCN(CCOC(=O)CCCCCCC/C=C\C/C=C\CCCCC)C(=O)CCC(=O)NCCC[C@H](NC(=O)CCC(=O)N(CCOC(=O)CCCCCCC/C=C\C/C=C\CCCCC)CCOC(=O)CCCCCCC/C=C\C/C=C\CCCCC)C(=O)NCCCOCCOCCOCCOCCOCCCNC(=O)[C@H](CCCNC(=O)CCC(=O)N(CCOC(=O)CCCCCCC/C=C\C/C=C\CCCCC)CCOC(=O)CCCCCCC/C=C\C/C=C\CCCCC)NC(=O)CCC(=O)N(CCOC(=O)CCCCCCC/C=C\C/C=C\CCCCC)CCOC(=O)CCCCCCC/C=C\C/C=C\CCCCC [Compound T6]	–	–	–	30%	12%	5%	–	–	–
CCCCC/C=C\C/C=C\CCCCCCCC(=O)OCCN(CCOC(=O)CCCCCCC/C=C\C/C=C\CCCCC)C(=O)CCC(=O)NCCCC[C@H](NC(C)=O)C(=O)NCCCOCCOCCOCCOCCOCCCNC(=O)[C@H](CCCCNC(=O)CCC(=O)N(CCOC(=O)CCCCCCC/C=C\C/C=C\CCCCC)CCOC(=O)CCCCCCC/C=C\C/C=C\CCCCC)NC(C)=O [Compound T13]	–	–	–	–	–	–	21.8%	6.4%	3.1%
CCC/C=C\C/C=C\CCCCCCCC(=O)OCCN(CCOC(=O)CCCCCCC/C=C\C/C=C\CCCCC)C(=O)CC[C@H](NC(=O)CCC(=O)NCCCOCCOCCOCCOCCOCCCNC(=O)CCC(=O)NC(CCC(=O)N(CCOC(=O)CCCCCCC/C=C\C/C=C\CCCCC)CCOC(=O)CCCCCCC/C=C\C/C=C\CCCCC)C(=O)N(CCOC(=O)CCCCCCC/C=C\C/C=C\CCC)CCOC(=O)CCCCCCC/C=C\C/C=C\CCCCC)C(=O)N(CCOC(=O)CCCCCCC/C=C\C/C=C\CCCCC)CCOC(=O)CCCCCCC/C=C\C/C=C\CCCCC (stereo partly drawn) [Compound T9]	–	–	–	100%	65%	36%	–	–	–
CC/C=C\C/C=C\C/C=C\CCCCCCCC(=O)OCCN(CCOC(=O)CCCCCCC/C=C\C/C=C\C/C=C\CC)C(=O)CCC(=O)NCCCC[C@H](NC(=O)CCC(=O)N(CCOC(=O)CCCCCCC/C=C\C/C=C\C/C=C\CC)CCOC(=O)CCCCCCC/C=C\C/C=C\C/C=C\CC)C(=O)NCCCOCCOCCOCCOCCOCCCNC(=O)[C@H](CCCCNC(=O)CCC(=O)N(CCOC(=O)CCCCCCC/C=C\C/C=C\C/C=C\CC)CCOC(=O)CCCCCCC/C=C\C/C=C\C/C=C\CC)NC(=O)CCC(=O)N(CCOC(=O)CCCCCCC/C=C\C/C=C\C/C=C\CC)CCOC(=O)CCCCCCC/C=C\C/C=C\C/C=C\CC [Compound T8]	–	–	–	29%	9%	8%	–	–	–
CCCCC/C=C\C/C=C\CCCCCCCC(=O)OCCN(CCOC(=O)CCCCCCC/C=C\C/C=C\CCCCC)C(=O)CCC(=O)NC[C@H](NC(=O)CCC(=O)N(CCOC(=O)CCCCCCC/C=C\C/C=C\CCCCC)CCOC(=O)CCCCCCC/C=C\C/C=C\CCCCC)C(=O)NCCCOCCOCCOCCOCCOCCCNC(=O)[C@H](CNC(=O)CCC(=O)N(CCOC(=O)CCCCCCC/C=C\C/C=C\CCCCC)CCOC(=O)CCCCCCC/C=C\C/C=C\CCCCC)NC(=O)CCC(=O)N(CCOC(=O)CCCCCCC/C=C\C/C=C\CCCCC)CCOC(=O)CCCCCCC/C=C\C/C=C\CCCCC [Compound T7]	–	–	–	51%	20%	8%	–	–	–
CCCCC/C=C\C/C=C\CCCCCCCCOC(=O)[C@H](COC(=O)CCC(=O)NCCCCC(NC(=O)CCC(=O)OC[C@H](NC(=O)CCCCCCC/C=C\C/C=C\CCCCC)C(=O)OCCCCCCCC/C=C\C/C=C\CCCCC)C(=O)NCCCOCCOCCOCCOCCOCCCNC(=O)C(CCCNC(=O)CCC(=O)OC[C@@H](NC(=O)CCCCCCC/C=C\C/C=C\CCCCC)C(=O)OCCCCCCCC/C=C\C/C=C\CCCCC)NC(=O)CCC(=O)OC[C@@H](NC(=O)CCCCCCC/C=C\C/C=C\CCCCC)C(=O)OCCCCCCCC/C=C\C/C=C\CCCCC)NC(=O)CCCCCCC/C=C\C/C=C\CCCCC (stereo partly drawn) [Compound T12]	–	–	–	–	–	–	40.2%	8.4%	2.7%
CCCCC/C=C\C/C=C\CCCCCCCCOC(=O)[C@H]1C[C@H](NCC(=O)CCC(=O)NCCCCC(NC(=O)CCC(=O)N[C@H]2C[C@H](C(=O)OCCCCCCCC/C=C\C/C=C\CCCCC)N(C(=O)CCCCCCC/C=C\C/C=C\CCCCC)C2)C(=O)NCCCOCCOCCOCCOCCOCCCNC(=O)C(CCCCNC(=O)CCC(=O)N[C@@H]2C[C@@H](C(=O)OCCCCCCCC/C=C\C/C=C\CCCCC)N(C(=O)CCCCCCC/C=C\C/C=C\CCCCC)C2)NC(=O)CCC(=O)N[C@@H]2C[C@@H](C(=O)OCCCCCCCC/C=C\C/C=C\CCCCC)N(C(=O)CCCCCCC/C=C\C/C=C\CCCCC)C2)CN1C(=O)CCCCCCC/C=C\C/C=C\CCCCC (stereo partly drawn) [Compound T10]	–	–	–	–	–	–	11.1%	4.2%	1.9%
CCCCC/C=C\C/C=C\CCCCCCCC(=O)OCCN(CCOC(=O)CCCCCCC/C=C\C/C=C\CCCCC)C(=O)CCCC(=O)NCCCC[C@H](NC(=O)CCCC(=O)N(CCOC(=O)CCCCCCC/C=C\C/C=C\CCCCC)CCOC(=O)CCCCCCC/C=C\C/C=C\CCCCC)C(=O)NCCCOCCOCCOCCOCCOCCCNC(=O)[C@H](CCCCNC(=O)CCCC(=O)N(CCOC(=O)CCCCCCC/C=C\C/C=C\CCCCC)CCOC(=O)CCCCCCC/C=C\C/C=C\CCCCC)NC(=O)CCCC(=O)N(CCOC(=O)CCCCCCC/C=C\C/C=C\CCCCC)CCOC(=O)CCCCCCC/C=C\C/C=C\CCCCC [Compound T5]	–	–	–	29%	13%	11%	–	–	–
CCCCCCCCCCCCCCCC(=O)OCCN(CCOC(=O)CCCCCCCCCCCCCCC)C(=O)CCCC(=O)NCCCC[C@H](NC(=O)CCCC(=O)N(CCOC(=O)CCCCCCCCCCCCCCC)CCOC(=O)CCCCCCCCCCCCCCC)C(=O)NCCCOCCOCCOCCCNC(=O)CCOCCOCCOCCOCCOCCC(=O)NCCCOCCOCCOCCCNC(=O)[C@H](CCCCNC(=O)CCCC(=O)N(CCOC(=O)CCCCCCCCCCCCCCC)CCOC(=O)CCCCCCCCCCCCCCC)NC(=O)CCCC(=O)N(CCOC(=O)CCCCCCCCCCCCCCC)CCOC(=O)CCCCCCCCCCCCCCC [Compound S6]	97%	80%	33%	–	–	–	–	–	–
CCCCC/C=C\C/C=C\CCCCCCCC(=O)OCCN(CCOC(=O)CCCCCCC/C=C\C/C=C\CCCCC)C(=O)CCC(=O)NC(CCCCNC(C)=O)C(=O)NCCCOCCOCCOCCOCCOCCCNC(=O)[C@H](CCCCNC(C)=O)NC(=O)CCC(=O)N(CCOC(=O)CCCCCCC/C=C\C/C=C\CCCCC)CCOC(=O)CCCCCCC/C=C\C/C=C\CCCCC (stereo partly drawn) [Compound T14]	–	–	–	–	–	–	103.3%	59.1%	5.2%

Source: patent US11413243B2, “Fusogenic compounds for delivery of biologically active molecules” (Nitto Denko Corporation, priority 2017, dated 2022)
